According to ChEMBL document CHEMBL5335865, “Macrocyclic Oxindole Peptide Epoxyketones-A Comparative Study of Macrocyclic Inhibitors of the 20S Proteasome” (ACS Med Chem Lett, 2024):
Active and inactive are the calls of the source.

Columns and labels:
Chymotrypsin = Chymotrypsin (UniProt Q99895+P17538+P40313+Q6GPI1); assay: Inhibition of chymotrypsin (unknown origin) using Suc-LLVY-AMC as fluorogenic substrate at 130 uM measured every 20 seconds for 10 mins by fluorescence based assay; assay type: protein assay; conditions: Homo sapiens
Sequence of Chymotrypsin (P17538 whole entry, looked up): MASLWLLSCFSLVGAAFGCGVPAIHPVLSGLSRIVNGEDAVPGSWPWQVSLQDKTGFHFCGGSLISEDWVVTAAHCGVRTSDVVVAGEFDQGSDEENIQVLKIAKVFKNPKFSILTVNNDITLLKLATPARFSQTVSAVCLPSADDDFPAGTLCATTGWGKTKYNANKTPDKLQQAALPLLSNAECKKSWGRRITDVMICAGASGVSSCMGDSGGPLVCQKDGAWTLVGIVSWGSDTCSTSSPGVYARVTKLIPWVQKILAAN
Sequence of Chymotrypsin (P40313 whole entry, looked up): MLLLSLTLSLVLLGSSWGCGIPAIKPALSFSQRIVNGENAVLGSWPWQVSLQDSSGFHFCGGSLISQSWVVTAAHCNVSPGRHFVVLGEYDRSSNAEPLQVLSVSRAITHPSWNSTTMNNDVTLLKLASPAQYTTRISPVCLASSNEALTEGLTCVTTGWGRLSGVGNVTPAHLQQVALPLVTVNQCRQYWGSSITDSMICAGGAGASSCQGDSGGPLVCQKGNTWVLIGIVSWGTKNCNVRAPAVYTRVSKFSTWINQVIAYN
Sequence of Chymotrypsin (Q6GPI1 whole entry, looked up): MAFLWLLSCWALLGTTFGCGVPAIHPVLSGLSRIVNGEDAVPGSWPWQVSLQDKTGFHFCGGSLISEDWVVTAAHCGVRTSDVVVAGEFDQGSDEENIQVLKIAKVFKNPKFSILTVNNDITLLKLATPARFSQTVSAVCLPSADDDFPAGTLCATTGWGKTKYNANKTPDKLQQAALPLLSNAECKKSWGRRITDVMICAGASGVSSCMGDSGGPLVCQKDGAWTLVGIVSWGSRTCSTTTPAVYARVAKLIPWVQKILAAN
Sequence of Chymotrypsin (Q99895 whole entry, looked up): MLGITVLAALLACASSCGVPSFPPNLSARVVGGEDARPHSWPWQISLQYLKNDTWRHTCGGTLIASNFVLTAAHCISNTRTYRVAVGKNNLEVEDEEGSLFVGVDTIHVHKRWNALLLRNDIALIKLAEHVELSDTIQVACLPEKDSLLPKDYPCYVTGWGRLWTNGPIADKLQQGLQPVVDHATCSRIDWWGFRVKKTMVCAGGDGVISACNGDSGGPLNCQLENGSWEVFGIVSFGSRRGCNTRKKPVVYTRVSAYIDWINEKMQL

[1] = molecular target: T1, 20S proteasome (Homo sapiens) (UniProt P49721+P20618+P28074+P28062+P28065+P28072+P25786+P25787+P25788+P25789+P28066+P60900+O14818+Q8TAA3+P40306+A5LHX3+P49720+P28070+Q99436); assay: Inhibition of human 20S proteasome trypsin-like activity using Ac-RLR-AMC as a fluorogenic substrate at 130 uM measured every 20 seconds for 10 mins by fluorescence based assay; assay type: protein-complex assay
[2] = molecular target: T1, 20S proteasome (Homo sapiens); assay: Inhibition of human 20S proteasome PGPH-like activity using Cbz-LLE-AMC as a fluorogenic substrate at 130 uM measured every 20 seconds for 10 mins by fluorescence based assay; assay type: protein-complex assay
[3] = molecular target: Cathepsin B (Homo sapiens) (UniProt P07858); assay: Inhibition of human liver cathepsin B using Cbz-Arg-Arg-AMC as fluorogenic substrate at 130 uM measured every 20 seconds for 10 mins by fluorescence based assay
[4] = molecular target: Calpain-2 catalytic subunit (Homo sapiens) (UniProt P17655); assay: Inhibition of m-calpain (unknown origin) using Suc-LLVY-AMC as fluorogenic substrate at 130 uM measured every 20 seconds for 10 mins by fluorescence based assay
Sequence of Calpain-2 catalytic subunit (Homo sapiens) (P17655 whole entry, looked up): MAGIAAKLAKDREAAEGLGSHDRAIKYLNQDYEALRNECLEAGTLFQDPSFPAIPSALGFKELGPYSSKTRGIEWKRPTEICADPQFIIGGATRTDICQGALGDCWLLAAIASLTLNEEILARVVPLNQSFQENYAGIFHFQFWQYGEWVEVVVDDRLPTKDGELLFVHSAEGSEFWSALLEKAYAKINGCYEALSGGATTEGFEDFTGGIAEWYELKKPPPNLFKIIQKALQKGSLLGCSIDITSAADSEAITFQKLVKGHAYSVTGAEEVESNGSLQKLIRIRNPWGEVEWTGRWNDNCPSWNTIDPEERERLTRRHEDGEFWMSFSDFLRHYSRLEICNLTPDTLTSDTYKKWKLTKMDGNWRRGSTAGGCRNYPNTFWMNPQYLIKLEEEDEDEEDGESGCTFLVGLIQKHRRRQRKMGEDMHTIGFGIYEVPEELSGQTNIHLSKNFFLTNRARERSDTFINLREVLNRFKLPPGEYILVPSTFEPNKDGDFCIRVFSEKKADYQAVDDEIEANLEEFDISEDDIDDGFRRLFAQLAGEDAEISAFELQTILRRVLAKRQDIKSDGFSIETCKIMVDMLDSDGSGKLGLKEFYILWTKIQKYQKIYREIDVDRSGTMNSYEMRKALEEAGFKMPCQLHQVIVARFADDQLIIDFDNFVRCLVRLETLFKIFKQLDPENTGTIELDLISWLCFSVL

Measured: inhibition

CC(C)C[C@@H](C=O)NC(=O)[C@@H]1Cc2ccc(cc2)Oc2cc(ccc2[N+](=O)[O-])C[C@H](NC(=O)OCc2ccccc2)C(=O)N[C@@H](CC(C)C)C(=O)N1
inactive: Chymotrypsin | [1]

CC(=O)N[C@H]1Cc2ccc([N+](=O)[O-])c(c2)Oc2ccc(cc2)CC[C@@H](C(=O)N[C@@H](CC(C)C)C(=O)[C@@]2(C)CO2)NC(=O)[C@H](CC(C)C)NC1=O
inactive: all assays above

CC(=O)N[C@H]1Cc2ccc([N+](=O)[O-])c(c2)Oc2ccc(cc2)C[C@@H](C(=O)N[C@@H](CC(C)C)C(=O)[C@@]2(C)CO2)NC(=O)[C@H](CC(C)C)NC1=O
inactive: all assays above

CC(=O)N[C@H]1Cc2ccc([N+](=O)[O-])c(c2)Oc2ccc3c(c2)C(C[C@@H](C(=O)N[C@@H](CC(C)C)C(=O)[C@@]2(C)CO2)NC(=O)[C@H](CC(C)C)NC1=O)C(=O)N3 (some centres undefined)
not listed: [2]
inactive: all other assays above

CC(C)C[C@H](NC(=O)[C@H](CCc1ccccc1)NC(=O)CN1CCOCC1)C(=O)N[C@@H](Cc1ccccc1)C(=O)N[C@@H](CC(C)C)C(=O)[C@@]1(C)CO1
not listed: [2]
inactive: all other assays above

CC(=O)N[C@@H](Cc1ccc([N+](=O)[O-])c(F)c1)C(=O)N[C@@H](CC(C)C)C(=O)N[C@@H](CC1C(=O)Nc2ccc(O)cc21)C(=O)N[C@@H](CC(C)C)C(=O)[C@@]1(C)CO1 (some centres undefined)
inactive: all assays above

CC(=O)N[C@H]1Cc2ccc([N+](=O)[O-])c(c2)Oc2ccc3c(c2)C(C[C@@H](C(=O)N[C@@H](CC(C)C)C(N)=O)NC(=O)[C@H](CC(C)C)NC1=O)C(=O)N3 (some centres undefined)
not listed: [1]
inactive: all other assays above
